Reference: US20230313199A1, “TARGET FOR MODULATING BODY MASS” (Massachusetts Institute of Technology, priority 2020, published 2023)

Legend:
MFSD7C and SERCA2b = target: T1, MFSD7C and SERCA2b (Mus musculus, UniProt Q91X85); assay: Co-IP of MFSD7C and SERCA2b in transfected 293T cells; type: cell-based, murine; conditions: 293T cells in the presence of MG132, heme for one hour
T1 construct: expressed in transfected cells; called 293T
Method: FIGS. 5A-5F show MFSD7C and heme regulate thermogenesis through SERCA2b in THP-1 cells. […] 30 hours later, MG132 was added into half of the cells and the other half was not treated. Another 35 hours later, some cells were treated with 40 μM heme for 1 hour before lysis. Cell lysates were immunoprecipitated with anti-FLAG antibody, and eluted, followed by anti-HA immunoprecipitation and elution. Total cell lysate and elute were subjected to Western blotting and probed with anti-SERCA2b or anti-MFSD7C antibodies. Shown are representative data from one of three experiments. […] 24 hrs later, cells were either not treated or treated with 10 μM MG132 for either 6 or 12 hours. The cells were lysed and subjected to FLAG pull-down and blotted with anti-MFSD7C, anti-SERCA2b and anti-ubiquitin antibodies. Shown are representative data from one of three experiments. […] Parental THP-1 cells were either not treated or treated with heme before lysis. Shown are representative data from one of four experiments. […] Shown are representative data from one of two experiments. […] Cells were washed and treated with 40 μM heme for one hour before flow cytometry. Representative FPT histograms from one of three experiments are shown. […] Shown are representative FPT histograms from one of three experiments. […]

[1] = target: T2, MFSD7C interactions with ETC components (CYC1, NDUFA4, COX4i1, ATP5h, ATP5c1) (Mus musculus, UniProt Q91X85); assay: Co-IP of HA-tagged MFSD7C with FLAG-tagged ETC components in transfected 293FT cells; type: cell-based, murine; conditions: 10 μM or 40 μM heme for one hour before cell lysis, increasing level
T2 construct: expressed in transfected cells; host or cells: 293FT cells
T2 sequence (Q91X85 whole entry): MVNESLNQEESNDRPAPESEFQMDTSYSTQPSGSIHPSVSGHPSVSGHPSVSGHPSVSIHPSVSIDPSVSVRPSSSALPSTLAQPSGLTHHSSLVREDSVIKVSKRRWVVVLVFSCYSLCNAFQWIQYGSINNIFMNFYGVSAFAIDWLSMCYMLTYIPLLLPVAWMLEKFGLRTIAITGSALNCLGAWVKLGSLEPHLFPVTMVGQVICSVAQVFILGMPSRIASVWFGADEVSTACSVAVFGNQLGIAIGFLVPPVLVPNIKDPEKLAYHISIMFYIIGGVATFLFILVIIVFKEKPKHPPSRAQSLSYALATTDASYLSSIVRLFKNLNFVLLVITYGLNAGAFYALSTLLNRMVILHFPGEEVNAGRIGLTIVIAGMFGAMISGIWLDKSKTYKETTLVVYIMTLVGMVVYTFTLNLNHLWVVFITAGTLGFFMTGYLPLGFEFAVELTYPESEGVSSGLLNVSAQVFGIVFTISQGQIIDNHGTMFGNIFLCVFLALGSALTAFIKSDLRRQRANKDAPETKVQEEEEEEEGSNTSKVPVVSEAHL
Method: Co-transfection and immunoprecipitation. For co-IP, HA-tagged MFSD7C was co-transfected with FLAG-tagged HMOX1 (Origene Catalog No. MR203944), CYC1, COX4I1, NDUFA4, ATP5h, ATP5c1 into 293FT cells using TransIT®-LT1 Transfection Reagent (Mirus). Thirty-six hours after transfection, the cells were lysed using cold Lysis Buffer containing 20 mM Tris-HCl (pH 7.4), 150 mM NaCl, 0.1% NP-40, 10% glycerol, proteinase inhibitor (Sigma Catalog No. 4693132001), and phosphatase inhibitors (Sigma Catalog No. 4906845001). The clear supernatants from the lysate were incubated with M2-magnetic beads conjugated with anti-FLAG antibody (Sigma Catalog No. M8823) for 2 hours at 4° C. Then the beads were washed twice and eluted by the 3× FLAG peptides (Sigma Catalog No. F4799).
To determine the effect of heme on MFSD7C interactions with ETC components, HMOX1 or SERCA2b, 293FT cells were transiently transfected with HA-tagged murine MFSD7C and FLAG-tagged murine CYC1, NDUFA4, COX4i1, ATP5h, ATP5c1, HMOX1 or SERCA2b. 35 hrs later, co-transfected cells were incubated with DMSO (vehicle) or 10 μM or 40 μM of heme for one hour before lysis. Cell lysates were precipitated with anti-HA antibody, eluted with HA peptide, further precipitated with anti-FLAG antibody, eluted with FLAG peptide, and then subjected to Western blotting with anti-HA and anti-FLAG antibodies. […]

T1 sequence (Q91X85 whole entry): as above

## C=CC1=C(C)c2cc3[n-]c(cc4[n-]c(cc5nc(cc1n2)C(C)=C5C=C)c(C)c4CCC(=O)O)c(CCC(=O)O)c3C.[Fe+2] [heme]
MFSD7C and SERCA2b
  co-IP of SERCA2b with MFSD7C: abolished
[1]
  ETC components co-precipitated with MFSD7C: less or very little ETC components co-precipitated with MFSD7C
